The text below walks through data of patent US20220288201A1, “COMBINATION THERAPY FOR TREATING RAS-MUTANT CANCERS” (H. Lee Moffitt Cancer and Research Institute, Inc., priority 2019, published 2022).

The IC50 is the point on the concentration scale where inhibition reaches its midpoint.

One series relates to A375. The series can be described thus: Colony growth assay, A375 (BRAF mutant positive control). It counts as cell-based. The conditions noted are these: Homo sapiens, A-375. The source says:
(§1) FIG. 1. […] All other lines are BRAF wild-type and have activating mutations in RAS.
(§2) While oncogene-induced senescence due to overexpressed mutant RAS is an important tumor suppression mechanism, multiple variants of senescence exist (Ito, Y., et al. Trends Cell Biol 27:820-832 (2017); Lasry, A. & Ben-Neriah, Y. Trends Immunol 36:217-28 (2015); Ewald, J. A., et al. J Natl Cancer Inst 102:1536-46 (2010); Mooi, W. J. & Peeper, D.S. N Engl J Med. 355:1037-46 (2006)). With this in mind, experiments were conducted to determine whether paradoxical ERK activation, as driven by BRAFi exposure in the context of RAS-mutant cancers, could cause elevation of ERK pathway signaling to the point of causing senescence-like growth arrest akin to oncogene-induced senescence. To determine the effects of BRAFi treatment on RAS-mutant melanomas, a panel of four BRAFi were screened against eight RAS-mutant melanoma cell lines. the FDA-approved BRAFi vemurafenib, dabrafenib, encorafenib (Dummer, R., et al. J Clin Oncol 31(2013)), and the ‘paradox-breaker PLX8394, which was designed to elicit no paradoxical ERK activation (Zhang, C., et al. Nature 526:583-6 (2015)) were tested.

A further series relates to ICP 298. The series can be described thus: Colony growth assay, ICP 298. The conditions noted are these: Homo sapiens, ICP 298, RAS Q61L. It counts as cell-based.
From the text: as §1, §2

The test system of another series is Sk-mel-119. The series can be described thus: Colony growth assay, Sk-mel-119. It is filed as cell-based. The conditions noted are these: Homo sapiens, Sk-mel-119, RAS Q61R.
From the text: as §1, §2

Another series concerns Sk-mel-2. The experiment in a line: Colony growth assay, Sk-mel-2. It is filed as cell-based. The conditions noted are these: Homo sapiens, Sk-mel-2, RAS Q61R.
From the text: as §1, §2

Another series concerns 501mel. The experiment in a line: Colony growth assay, 501mel. It counts as cell-based. The conditions noted are these: Homo sapiens, RAS G12D.
From the text: as §1, §2

Another series deals with GAK. The experiment in a line: Colony growth assay, GAK. It is filed as cell-based. The conditions noted are these: Homo sapiens.
From the text: as §1, §2

In the next series the test system is MelJUSO. The series can be described thus: Colony growth assay, MelJUSO. It counts as cell-based. The conditions noted are these: Homo sapiens, MEL-JUSO, RAS Q61L (HRASG13D).
From the text: as §1, §2

A further series has as its system CP66. The series can be described thus: Colony growth assay, CP66. The conditions noted are these: Homo sapiens, CP66, RAS Q61K. It counts as cell-based.
From the text: as §1, §2

In another series the test system is WM1366. The experiment in a line: Colony growth assay, WM1366. The conditions noted are these: Homo sapiens, WM1366, RAS Q61L. It counts as cell-based.
From the text: as §1, §2

Series [1] deals with RAS-mutant melanoma cell lines. The series can be described thus: BRAFi screen against panel of RAS-mutant melanoma cell lines. The conditions noted are these: for IC50: Homo sapiens, four 'BRAFi sensitive' RAS-mutant cell lines, read-out: IC50, growth inhibition. It is filed as cell-based, human.
From the text: as §1, §2

For series [2] the following is noted: in vivo; cited from earlier work.
Series [3] concerns IL-6 secretion, 501 MEL melanoma cell lines. The series can be described thus: IL-6 secreted in the media of 501 MEL cells. It is filed as cell-based, human. The conditions noted are these: acute 24 hours or chronic 7 days, vs control-treated. The source says: Substantial increases in the secretion of this canonical senescence-associated cytokine are reliably measured in all settings, up to 3-fold in magnitude, showing essential features of the ERK-hyperactivation mediated senescence response.

Series [4] relates to NRASQ61R-mutant melanoma cells (C57BL/6). The experiment in a line: Transplanted NRASQ61R-mutant melanoma model in C57BL/6 mice. It counts as in vivo, mouse. The conditions noted are these: dabrafenib 3.5 mg/kg/day, RMP1-14 thrice weekly, start day 7. As to the method: FIG. 11. Transplanted NRASQ61R-mutant melanoma cells (C57BL/6) regress when dabrafenib-induced PEASA is combined with anti-PD1 immunotherapy. 1 million melanoma cells were injected in both flanks of C57BL/6 mice and therapy started at 7 days. […] mice per condition across 2 independent trials; mean tumor volume +/−SEM.
Because senescence is associated with a specific inflammatory gene expression signature, RNAseq was used to characterize responsive NRAS-mutant cell lines (IPC298, SK-MEL-119) following BRAFi exposure.

Series [5] concerns IPC 298 and 501mel cell line xenografts. The series can be described thus: IPC 298 and 501mel cell line xenografts in mice. It is filed as in vivo, mouse. The conditions noted are these: 3.5 mg/kg daily; NOD/SCID gamma or athymic nude mice. How it is done:
FIG. 4. […] (A) IPC 298 cell line xenografts were established in NOD/SCID gamma mice by co-injecting 1 million IPC 298 cells subcutaneously. Daily treatment with vehicle (n=20) or 3.5 mg/kg dabrafenib (n=20) was initiated at ‘Day 0,’ or 7 days post injection. Tumor volume was tracked by caliper measurement, calculated using V=½lw2. Student's t-test compares differences in tumor volumes at sacrifice in both conditions versus vehicle control (B) Representative image of mice from (A) at experimental endpoint. (C) Phospho-ERK western-blotting of tumor lysates from a short-term pharmacodynamic experiment from IPC 298 lysates harvested from mice treated orally with vehicle or 3.5 mg/kg dabrafenib for 5 days. (D) 501mel cell line xenografts were established in athymic nude mice by co-injecting 4 million 501mel cells mixed with 1 million normal dermal fibroblasts (NDF) per site. Mice were treated with vehicle (n=11) or 3.5 mg/kg dabrafenib (n=10), 12 days post injection. As engraftment with 501mel/NDF is inefficient, only tumors with diameters >3 mm at treatment initiation are detailed here. Student's t-test compares differences in tumor volumes at sacrifice in both conditions versus vehicle control. (E) Representative image of mice from (D) at experimental endpoint. […] Quantitative data represent at least three independent experiments. […]

The conditions of series [6]: cited from earlier work; for induction of cutaneous squamous cell carcinoma (cuSCC), patients: treated patients, averaged across multiple studies.
The mark [7] stands for this setting: A375, RAS WT (BRAFV600E), colony growth, read-out: IC50.
The mark [8] stands for this setting: GAK, RAS Q61K, colony growth, read-out: IC50.

Like-named read-outs stand apart in the source and are kept apart here.

For the compound `COC(=O)N[C@@H](C)CNc1nccc(-c2cn(C(C)C)nc2-c2cc(Cl)cc(NS(C)(=O)=O)c2F)n1` [Encorafenib], the IC50 came out at 0.71 nM in the series with A375 (setting [7]); 0.9 nM in the series with ICP 298; 0.49 nM with Sk-mel-119; 550 nM in the series on Sk-mel-2; 7.5 nM in the series on 501mel; 1600 nM in the series on GAK (setting [8]). In addition, the IC50 in the series with MelJUSO is 26 nM; in the series on CP66 it was 520 nM; with WM1366 it was above 2 µM; in [1], below 100 nM. Besides, the plasma elimination half-life entry in series [2] is “approximately 6 hours”.

In the case of `CC(C)(C)c1nc(-c2cccc(NS(=O)(=O)c3c(F)cccc3F)c2F)c(-c2ccnc(N)n2)s1` [Dabrafenib], the 50% inhibitory concentration (IC50) with A375 was 2.5 nM; in the series with ICP 298, 31 nM; with Sk-mel-119 it was 1.8 nM; with Sk-mel-2, 240 nM; in the series on 501mel, 21 nM; in the series on GAK (setting [8]), 700 nM. Besides, the IC50 in the series on MelJUSO is 100 nM; in the series with CP66, 1000 nM; in the series with WM1366, above 5 µM; in series [1] it was below 100 nM. Also, the “increase in secretion of IL-6” value in [3] is recorded as “up to 3 fold”. In [4], the “tumor response (tumor volume)” value is given as “partial responses, but progressive disease”. The “tumor growth in vivo” value in series [5] was “prevents RAS-mutant tumor growth”. Also, the “induction of cutaneous squamous cell carcinoma (cuSCC), patients” value in series [6] is given as 6%.

With `CCCS(=O)(=O)Nc1ccc(F)c(C(=O)c2c[nH]c3ncc(-c4ccc(Cl)cc4)cc23)c1F` [Vemurafenib], the IC50 stood at 68 nM in the series on A375 (setting [7]); 380 nM in the series on ICP 298; 540 nM in the series with Sk-mel-119; 2500 nM with Sk-mel-2; 3000 nM with 501mel; 5300 nM in the series with GAK. In addition, the IC50 in the series on MelJUSO is above 6600 nM; in the series on CP66, above 6600 nM; in the series with WM1366, above 6.6 µM. Further, the “cuSCC harboring activating RAS mutations” value in series [6] (cuSCC from treated patients, 10-20% in sporadic cuSCC) is “Approximately 60%”. Moreover, the “induction of cutaneous squamous cell carcinoma (cuSCC), patients” value in [6] is 22%.

In the case of `O=C(c1c(F)ccc(NS(=O)(=O)N2CC[C@@H](F)C2)c1F)c1c[nH]c2ncc(-c3cnc(C4CC4)nc3)cc12` [PLX8394], the concentration for half-maximal inhibition (IC50) is 180 nM in the series with A375 (setting [7]); above 1000 nM in the series with ICP 298; above 1000 nM in the series on Sk-mel-119; above 1000 nM with Sk-mel-2; above 1000 nM in the series on 501mel; above 1000 nM in the series with GAK (setting [8]). For the same compound, the concentration for half-maximal inhibition (IC50) was above 1000 nM in the series with MelJUSO, above 1000 nM with CP66 and above 1 µM with WM1366. In addition, in [1] (RAS mutant cell lines), the “activity against RAS mutant cell lines” value is on record as “never showed activity”.
